T1: Ncad-Fc protein (chicken N-cadherin ectodomain fused to the Fc fragment of mouse IgG2b) (Gallus gallus, UniProt P10288)
T1 construct: chicken N-cadherin ectodomain fused to the Fc fragment of mouse IgG2b
T1 sequence (P10288 165-729 limits assumed): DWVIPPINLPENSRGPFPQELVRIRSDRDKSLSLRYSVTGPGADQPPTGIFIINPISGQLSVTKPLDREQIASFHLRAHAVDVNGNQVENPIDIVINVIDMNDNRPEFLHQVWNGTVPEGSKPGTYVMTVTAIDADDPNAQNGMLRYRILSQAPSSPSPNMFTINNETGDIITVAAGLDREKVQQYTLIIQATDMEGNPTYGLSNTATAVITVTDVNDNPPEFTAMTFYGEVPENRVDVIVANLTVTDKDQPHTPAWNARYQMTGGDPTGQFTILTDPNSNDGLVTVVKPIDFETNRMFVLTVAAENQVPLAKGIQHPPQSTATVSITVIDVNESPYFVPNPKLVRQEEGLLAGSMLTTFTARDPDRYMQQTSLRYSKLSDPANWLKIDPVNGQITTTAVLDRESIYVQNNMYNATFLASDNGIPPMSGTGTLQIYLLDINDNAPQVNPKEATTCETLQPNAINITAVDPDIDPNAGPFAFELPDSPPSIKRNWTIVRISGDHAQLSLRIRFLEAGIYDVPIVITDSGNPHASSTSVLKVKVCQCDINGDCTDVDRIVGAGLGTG

B1: Ncad-Fc protein (chicken N-cadherin ectodomain fused to the Fc fragment of mouse IgG2b) (Fc fusion, UniProt P10288 165-729, looked up)
chain: T1 sequence (P10288 165-729 limits assumed)
notes: extracellular domain; Captured on magnetic Dynabeads Protein A for the bead-bead aggregation assay; also called N-cadherin coated Dynabeads; not shown: Fc fragment of mouse IgG2b

Tests used:
[1] = molecular target: T1, Ncad-Fc protein (chicken N-cadherin ectodomain fused to the Fc fragment of mouse IgG2b); assay: Ncad-Fc bead-bead aggregation assay; assay type: biochemical; settings: N-cadherin coated Dynabeads, 30 minutes to 1 hour at 37° C.
Method: Compounds of the invention were assayed according to the following procedures.
(§1) 10 μl of magnetic Dynabeads® Protein A (Prod. No. 100.01) were pipetted into a 1.5 ml eppendorf tube and washed with 0.5 ml of PBS (1×), 0.1% Tween 20, and 2 mM EGTA using the Dynal MPC-S Magnetic Particle Concentrator. Supernatant was aspirated, the magnet was removed and beads were washed once more with same buffer using the Dynal MPC-S Magnetic Particle Concentrator. Following this supernatant was once again removed and the beads were resuspended in 10 μl of PBS (1×), 0.1% Tween 20, and 2 mM EGTA buffer.
(§2) An equal 10 ul volume of Ncad-Fc protein (0.25 mg/10 μl, chicken N-cadherin ectodomain fused to the Fc fragment of mouse IgG2b) or human Fc (Jackson Immunoresearch, concentration 2.3 mg/ml) suspended in PBS (1×), 0.1% Tween 20, 2 mM EGTA and 1% BSA (Sigma, Prod. No. A0281) was added and incubated for 1-2 hours at room temperature on the Vortex Genie 2, followed by three washes in 0.5 ml of the same buffer. The beads were then resuspended in 80 μl PBS (1×) plus 1% BSA (dilution 1/8) and kept on ice.
The aggregation assay was performed in duplicates in 12 well/6 mm slides (CEL-LINE/ERIE SCIENTIFIC CO. Prod. No. 10-103). Experimentation was conducted in eppendorf tubes containing […] of DMEM medium ([…] glucose, Gibco Prod. No. 21 885-025)+10% Fetal Calf Serum (FCS) containing an N-cadherin inhibitor or calcium chelator (EDTA, EGTA) with the addition of 4 μl of N-cadherin coated Dynabeads®. The resulting bead solutions were gently mixed on ice followed by 50 μl of solution deposited per well.
Slides were incubated for 30 minutes to 1 hour at 37° C. and 5% CO2. After incubation two images per well were recorded on an inverted microscope (Nikon Diaphot) at 20× magnification, with an 8 Volt illumination using a Nikon D100. Images were analyzed using the Bead Counting software program from Metamorph (Meta Imaging Series 6.2r6).
In this assay, in the absence of inhibitor, the beads bind to each other and aggregate due to dimerization of the N-cadherin molecules on the surfaces of the beads. Accordingly, compounds effective for disrupting N-cadherin-mediated cell adhesion can be identified on the basis of whether they disrupt bead-bead aggregation in this assay.

[2] = tested on: retinal explants on substrate protein (Human N-cadherin-Fc or Laminin); assay: Culture of retinal explants and quantification of neurite outgrowth; assay type: cell-based, White Leghorn chick; settings: embryonic day 8 chick retina explants, examined approximately 20 hours after plating
Excerpt: Tissue culture dishes were coated with nitrocellulose and allowed to dry (Lagenaur and Lemmon, [citation?] 1987). Substrate protein (Human N-cadherin-Fc or Laminin) was spread across the central region of each dish. Retinal explant cultures were made according to a previously described procedure (Halfter, W. et al., Dev. Biol., 95:56-64, 1983; Drazba, J. and Lemmon, V., Dev. Biol., 138:82-93, 1990). In brief, embryonic day 8 (stage 32-34 according to Hamburger and Hamilton, [citation?] 1951) White Leghorn chick eyes were dissected and the retina was flattened with the photoreceptor side down onto black nitrocellulose filters that had previously been incubated in concanavalin A. The filter was then cut into strips perpendicular to the optic fissure. Strips were inverted onto substrate-coated culture dishes so that the gang lion cell layer was directly adjacent to the substratum. N-cadherin small molecule antagonists were diluted in the culture medium and added at the time of plating. Neurite outgrowth was examined at approximately 20 hours after plating.
Neurite outgrowth from retina explants was catalogued using a SPOT RT digital camera and image acquisition software. The length of the five longest neurites per explant were measured (Burden-Gulley, S. M. and Brady-Kalnay, S. M. J. Cell Biol., 144:1323-1336, 1999). To measure neurite density, the region of neurite outgrowth was outlined to define the region of interest and the neurites were highlighted using Metamorph software. Data from similar experimental conditions were combined, analyzed by Student's t test and plotted.

[3] = molecular target: the molecule itself; assay: bead-bead aggregation assay, Ncad-Fc on Protein A Dynabeads, microscopy and bead counting
Method: as §1, §2
The aggregation assay was performed in duplicates in 12 well/6 mm slides (CEL-LINE/ERIE SCIENTIFIC CO. Prod. No. 10-103). […]

Molecule | active in Ncad-Fc bead-bead aggregation assay (disrupt bead-bead aggregation) [1] | inhibit neurite outgrowth [2] | binding result [3]
Cc1nnc(Cc2ccccc2)[nH]1 [compound 10-1, 3-Benzyl-5-Methyl-4H-[1,2,4]Triazole] | active |  | 
Cn1nc(-c2ccc(C(C)(C)C)cc2)nc1S [compound 46-1, 5-(4-Tert-Butylphenyl)-2-Methyl-2H-[1,2,4]Triazole-3-Thiol] |  | inhibit neurite outgrowth | 
CC(C)(C)c1ccc(-c2nnc(Cc3ccccc3)[nH]2)cc1 [compound 26-1, 3-Benzyl-5-(4-Tert-Butylphenyl)-4H-[1,2,4]Triazole] |  | inhibit neurite outgrowth | 
CCc1nnc(-c2ccc(C(C)(C)C)cc2)[nH]1 [compound 1-1, 3-(4-Tert-Butylphenyl)-5-Ethyl-4H-[1,2,4]Triazole] | active | inhibit neurite outgrowth | 
Cc1nnc(-c2ccc(C(C)(C)C)cc2)[nH]1 [compound 53-1, 3-(4-Tert-Butylphenyl)-5-Methyl-4H-[1,2,4]Triazole] | active | inhibit neurite outgrowth | 
Cc1nnc(-c2ccccc2Cl)[nH]1 [compound 7-1, 3-(2-Chlorophenyl)-5-Methyl-4H-[1,2,4]Triazole] | active |  | 
COc1cccc(-c2nnc(C)[nH]2)c1 [compound 11-1, 3-(3-Methoxyphenyl)-5-Methyl-4H-[1,2,4]Triazole] | active |  | 
Cc1nnc(-c2cccnc2)[nH]1 [compound 66-1, 3-(5-Methyl-4H-[1,2,4]Triazol-3-Yl)-Pyridine] | active |  | 
CC(C)(C)c1ccc(-c2nnc(N)[nH]2)cc1 [compound 50-1, 5-(4-Tert-Butylphenyl)-4H-[1,2,4]Triazol-3-Ylamine] | active |  | 
COc1ccc(-c2nnc(S)[nH]2)cc1 [compound 69-2] |  | inhibit neurite outgrowth | 
Cc1cnc(-c2ccc(C(C)(C)C)cc2)[nH]1 [compound 64-1, 2-(4-Tert-Butylphenyl)-5-Methyl-1H-Imidazole] |  | inhibit neurite outgrowth | 
Cc1nnc(-c2cccs2)[nH]1 [compound 68-1, 3-Methyl-5-Thiophen-2-Yl-4H-[1,2,4]Triazole] | active |  | 
Cc1nnc(-c2ccncc2)[nH]1 [compound 67-1, 4-(5-Methyl-4H-[1,2,4]Triazol-3-Yl)-Pyridine] | active |  | 
CC(C)(C)c1ccc(-c2nnc(-c3cnccn3)[nH]2)cc1 [compound 28-1, 2-[5-(4-Tert-Butylphenyl)-4H-[1,2,4]Triazol-3-Yl]-Pyrazine] |  | inhibit neurite outgrowth | 
CC(C)(C)c1ccc(-c2nnc(C3CC3)[nH]2)cc1 [compound 22-1, 3-(4-Tert-Butylphenyl)-5-Cyclopropyl-4H-[1,2,4]Triazole] |  | inhibit neurite outgrowth | 
Cc1nnc(-c2ccccn2)[nH]1 [compound 65-1, 2-(5-Methyl-4H-[1,2,4]Triazol-3-Yl)-Pyridine] | active |  | 
CC(C)(C)c1ccc(-c2nnc(C(F)F)[nH]2)cc1 [compound 57-1, 3-(4-Tert-Butylphenyl)-5-Difluoromethyl-4H-[1,2,4]Triazole] |  | inhibit neurite outgrowth | 
CC(C)c1nnc(-c2ccc(C(C)(C)C)cc2)[nH]1 [compound 21-1, 3-(4-Tert-Butylphenyl)-5-Isopropyl-4H-[1,2,4]Triazole] |  | inhibit neurite outgrowth | 
Sc1nnc(-c2cccs2)[nH]1 [compound 69-4] |  | inhibit neurite outgrowth | 
Cc1cccc(-c2nnc(C)[nH]2)c1 [compound 5-1, 3-Methyl-5-M-Tolyl-4H-[1,2,4]Triazole] | active |  | 
Cc1nnc(-c2ccc(Cl)cc2)[nH]1 [compound 9-1, 3-(4-Chlorophenyl)-5-Methyl-4H-[1,2,4]Triazole] | active |  | 
Cc1nnc(-c2cccc(Cl)c2)[nH]1 [compound 8-1, 3-(3-Chlorophenyl)-5-Methyl-4H-[1,2,4]Triazole] | active |  | 
Cc1nnc(-c2ccc(Cl)c(Cl)c2)[nH]1 [compound 14-1, 3-(3,4-Dichlorophenyl)-5-Methyl-4H-[1,2,4]Triazole] | active |  | 
CC(C)(C)c1ccc(-c2nnc(C3CCC3)[nH]2)cc1 [compound 25-1, 3-(4-Tert-Butylphenyl)-5-Cyclobutyl-4H-[1,2,4]Triazole] |  | inhibit neurite outgrowth | 
COc1ccc(-c2nnc(C)[nH]2)cc1 [compound 12-1, 3-(4-Methoxyphenyl)-5-Methyl-4H-[1,2,4]Triazole] | active |  | 
B1 |  |  | binds
